Laboratory results published in ChEMBL document CHEMBL3046339, “Insecticidal activity of Maytenus species (Celastraceae) nortriterpene quinone methides against codling moth, Cydia pomonella (L.) (Lepidoptera: tortricidae)” (2000).
In brackets after ≈: the same amount, converted by molar mass.

Assays:
Format in all cases: functional
Cydia pomonella [1] = assay: Insecticidal activity against Cydia pomonella (codling moth) at 2 mg/kg assessed as growth regulation measured as number of head capsules of larvae after 10 days of continuous exposure Rvb = (1.5 +/- 0.2%)
Cydia pomonella [2] = assay: Insecticidal activity against Cydia pomonella (codling moth) at 20 mg/kg assessed as growth regulation measured as number of head capsules of larvae after 10 days of continuous exposure Rvb = (1.5 +/- 0.2%)
Cydia pomonella [3] = assay: Antifeedant activity against Cydia pomonella (codling moth) at 1 mg/kg diet topically measured after 5 days of continuous exposure (reference value: 6.7 +/- 6.7%)
Cydia pomonella [4] = assay: Antifeedant activity against Cydia pomonella (codling moth) at 8 mg/kg diet topically measured after 10 days of continuous exposure (reference value: 6.7 +/- 6.7%)
Cydia pomonella [5] = assay: Antifeedant activity against Cydia pomonella (codling moth) at 6 mg/kg diet topically measured after 10 days of continuous exposure (reference value: 6.7 +/- 6.7%)
Cydia pomonella [6] = assay: Insecticidal activity against Cydia pomonella (codling moth) at 6 mg/kg assessed as growth regulation measured as number of head capsules of larvae after 10 days of continuous exposure Rvb = (1.5 +/- 0.2%)
Cydia pomonella [7] = assay: Antifeedant activity against Cydia pomonella (codling moth) at 12 mg/kg diet topically measured after 10 days of continuous exposure (reference value: 6.7 +/- 6.7%)
Cydia pomonella [8] = assay: Insecticidal activity against Cydia pomonella (codling moth) assessed as mortality at 6 mg/kg diet topically measured after 5 days of continuous exposure (reference value: 0%); conditions: topical, 120 h
Cydia pomonella [9] = assay: Antifeedant activity against Cydia pomonella (codling moth) at 6 mg/kg diet topically measured after 5 days of continuous exposure (reference value: 6.7 +/- 6.7%)
Cydia pomonella [10] = assay: Antifeedant activity against Cydia pomonella (codling moth) at 2 mg/kg diet topically measured after 10 days of continuous exposure (reference value: 6.7 +/- 6.7%)
Cydia pomonella [11] = assay: Insecticidal activity against Cydia pomonella (codling moth) at 6 mg/kg assessed as growth regulation measured as number of head capsules of larvae after 5 days of continuous exposure (reference value: 0.2 +/- 0.2%)
Cydia pomonella [12] = assay: Insecticidal activity against Cydia pomonella (codling moth) at 1 mg/kg assessed as growth regulation measured as number of head capsules of larvae after 10 days of continuous exposure Rvb = (1.5 +/- 0.2%)
Cydia pomonella [13] = assay: Insecticidal activity against Cydia pomonella (codling moth) at 16 mg/kg assessed as growth regulation measured as number of head capsules of larvae after 5 days of continuous exposure (reference value: 0.2 +/- 0.2%)
Cydia pomonella [14] = assay: Antifeedant activity against Cydia pomonella (codling moth) at 12 mg/kg diet topically measured after 5 days of continuous exposure (reference value: 6.7 +/- 6.7%)
Cydia pomonella [15] = assay: Insecticidal activity against Cydia pomonella (codling moth) assessed as mortality at 18 mg/kg diet topically measured after 10 days of continuous exposure (reference value: 3.3 +/- 3.3%); conditions: topical, 240 h
Cydia pomonella [16] = assay: Insecticidal activity against Cydia pomonella (codling moth) assessed as mortality at 2 mg/kg diet topically measured after 5 days of continuous exposure (reference value: 0%); conditions: topical, 120 h
Cydia pomonella [17] = assay: Antifeedant activity against Cydia pomonella (codling moth) at 1 mg/kg diet topically measured after 10 days of continuous exposure (reference value: 6.7 +/- 6.7%)
Cydia pomonella [18] = assay: Insecticidal activity against Cydia pomonella (codling moth) assessed as mortality at 8 mg/kg diet topically measured after 10 days of continuous exposure (reference value: 3.3 +/- 3.3%); conditions: topical, 240 h
Cydia pomonella [19] = assay: Antifeedant activity against Cydia pomonella (codling moth) at 18 mg/kg diet topically measured after 10 days of continuous exposure (reference value: 6.7 +/- 6.7%)
Cydia pomonella [20] = assay: Insecticidal activity against Cydia pomonella (codling moth) assessed as mortality at 1 mg/kg diet topically measured after 5 days of continuous exposure (reference value: 0%); conditions: topical, 120 h
Cydia pomonella [21] = assay: Insecticidal activity against Cydia pomonella (codling moth) assessed as mortality diet topically measured after 5 days of continuous exposure; conditions: topical, 120 h
Cydia pomonella [22] = assay: Insecticidal activity against Cydia pomonella (codling moth) assessed as mortality at 1 mg/kg diet topically measured after 10 days of continuous exposure (reference value: 3.3 +/- 3.3%); conditions: topical, 240 h
Cydia pomonella [23] = assay: Insecticidal activity against Cydia pomonella (codling moth) at 8 mg/kg assessed as growth regulation measured as number of head capsules of larvae after 10 days of continuous exposure Rvb = (1.5 +/- 0.2%)
Cydia pomonella [24] = assay: Antifeedant activity against Cydia pomonella (codling moth) at 4 mg/kg diet topically measured after 10 days of continuous exposure (reference value: 6.7 +/- 6.7%)
Cydia pomonella [25] = assay: Insecticidal activity against Cydia pomonella (codling moth) at 4 mg/kg assessed as growth regulation measured as number of head capsules of larvae after 10 days of continuous exposure Rvb = (1.5 +/- 0.2%)
Cydia pomonella [26] = assay: Antifeedant activity against Cydia pomonella (codling moth) at 18 mg/kg diet topically measured after 5 days of continuous exposure (reference value: 6.7 +/- 6.7%)
Cydia pomonella [27] = assay: Insecticidal activity against Cydia pomonella (codling moth) assessed as mortality at 4 mg/kg diet topically measured after 5 days of continuous exposure (reference value: 0%); conditions: topical, 120 h
Cydia pomonella [28] = assay: Insecticidal activity against Cydia pomonella (codling moth) at 2 mg/kg assessed as growth regulation measured as number of head capsules of larvae after 5 days of continuous exposure (reference value: 0.2 +/- 0.2%)
Cydia pomonella [29] = assay: Insecticidal activity against Cydia pomonella (codling moth) at 12 mg/kg assessed as growth regulation measured as number of head capsules of larvae after 10 days of continuous exposure Rvb = (1.5 +/- 0.2%)
Cydia pomonella [30] = assay: Antifeedant activity against Cydia pomonella (codling moth) at 16 mg/kg diet topically measured after 10 days of continuous exposure (reference value: 6.7 +/- 6.7%)
Cydia pomonella [31] = assay: Insecticidal activity against Cydia pomonella (codling moth) assessed as mortality at 8 mg/kg diet topically measured after 5 days of continuous exposure (reference value: 0%); conditions: topical, 120 h
Cydia pomonella [32] = assay: Insecticidal activity against Cydia pomonella (codling moth) assessed as mortality at 20 mg/kg diet topically measured after 10 days of continuous exposure (reference value: 3.3 +/- 3.3%); conditions: topical, 240 h
Cydia pomonella [33] = assay: Antifeedant activity against Cydia pomonella (codling moth) at 16 mg/kg diet topically measured after 5 days of continuous exposure (reference value: 6.7 +/- 6.7%)
Cydia pomonella [34] = assay: Insecticidal activity against Cydia pomonella (codling moth) assessed as mortality at 4 mg/kg diet topically measured after 10 days of continuous exposure (reference value: 3.3 +/- 3.3%); conditions: topical, 240 h
Cydia pomonella [35] = assay: Insecticidal activity against Cydia pomonella (codling moth) at 20 mg/kg assessed as growth regulation measured as number of head capsules of larvae after 5 days of continuous exposure (reference value: 0.2 +/- 0.2%)
Cydia pomonella [36] = assay: Insecticidal activity against Cydia pomonella (codling moth) assessed as mortality at 6 mg/kg diet topically measured after 10 days of continuous exposure (reference value: 3.3 +/- 3.3%); conditions: topical, 240 h

Work on `CC1=C(O)C(=O)C=C2C1=CC=C1[C@@]2(C)CC[C@@]2(C)[C@@H]3C[C@](C)(O)C(=O)C[C@]3(C)CC[C@]12C` [20ALPHA-HYDROXYTINGENONE] yielded an Activity (Cydia pomonella [1]) of 1.4, an Activity (Cydia pomonella [2]) of 0 and an Activity (Cydia pomonella [3]) of 6.7%. The Activity (Cydia pomonella [4]) was 80%, the Activity (Cydia pomonella [5]) was 53.3% and the Activity (Cydia pomonella [6]) was 0.6. For the same compound, the Activity (Cydia pomonella [7]) was 90%, the mortality at 6 mg/kg (Cydia pomonella [8]) was 10% and the Activity (Cydia pomonella [9]) was 83.3%. For the same compound, the Activity (Cydia pomonella [10]) was 3.3%, the Activity (Cydia pomonella [11]) was 0 and the Activity (Cydia pomonella [12]) was 1.2. It also gave an Activity (Cydia pomonella [13]) of 0, an Activity (Cydia pomonella [14]) of 96.7% and a mortality at 18 mg/kg (Cydia pomonella [15]) of 93.3%. For the same compound, the mortality at 2 mg/kg (Cydia pomonella [16]) was 0%, the Activity (Cydia pomonella [17]) was 6.7% and the mortality at 8 mg/kg (Cydia pomonella [18]) was 43.3%. It also gave an Activity (Cydia pomonella [19]) of 100%, a mortality at 1 mg/kg (Cydia pomonella [20]) of 3.3% and an LC50 (Cydia pomonella [21]) of 13 mg/mL (≈ 29.8 mM). It also gave a mortality at 1 mg/kg (Cydia pomonella [22]) of 3.3%, an Activity (Cydia pomonella [23]) of 0.2 and an Activity (Cydia pomonella [24]) of 33.3%. For the same compound, the Activity (Cydia pomonella [25]) was 0.6, the Activity (Cydia pomonella [26]) was 100% and the mortality at 4 mg/kg (Cydia pomonella [27]) was 6.7%. It also gave an Activity (Cydia pomonella [28]) of 0.1, an Activity (Cydia pomonella [29]) of 0.3 and an Activity (Cydia pomonella [30]) of 100%. It also gave a mortality at 8 mg/kg (Cydia pomonella [31]) of 3.3%, a mortality at 20 mg/kg (Cydia pomonella [32]) of 100% and an Activity (Cydia pomonella [33]) of 100%. It also gave a mortality at 4 mg/kg (Cydia pomonella [34]) of 16.7%, an Activity (Cydia pomonella [35]) of 0 and a mortality at 6 mg/kg (Cydia pomonella [36]) of 23.3%.
